According to patent US20250041429A1, “COMPOUND HAVING BTK PROTEIN DEGRADATION ACTIVITY, AND MEDICAL USES THEREOF” (UBIX THERAPEUTICS, INC., priority 2021, published 2025):

Target: T1, BTK protein (Homo sapiens, UniProt Q06187)
T1 construct: endogenous in cells; host or cells: TMD-8 cells
Assay: Measurement of BTK protein degradation ability in TMD-8 cells (Western blotting)
Format: cell-based
Conditions: harvested after 24 hours; for BTK degradation (%) 1 nM: compound 1 nM; for BTK degradation (%) 10 nM: compound 10 nM; for BTK degradation (%) 100 nM: compound 100 nM
Procedure: TMD-8, RAMOS, or 293T BTK MUT (C481S) cells were treated with the synthesized compounds, and then the amount of BTK protein present in the cells was measured using Western blotting detection. The protocol for the experiment conducted using TMD-8 cells was as follows:
[Culture] TMD-8 cells were resuspended in RPMI1640 MEDIUM (Hyclone, SH30027.01), 10% FBS (Hyclone, SV30207.02), and 1% Penicillin-streptomycin (Welgene, LS 202-02) media, and 1 mL of this suspension was seeded in a 12-well plate at a cell concentration of 1×10^6/mL.
[Compound treatment] The 12-well plate was treated as follows: The 10 mM stock was serially diluted 1/10 with DMSO (3 μL+27 μL DMSO), and cells were treated with compounds at final concentrations of 0.1, 1, 10 μM or 0.0001, 0.001, 0.01, 0.1 μM, and harvested after 24 hours. In the negative control group, DMSO diluted 1/10 was added to the media. (3 μL DMSO+27 μL media)
[Harvest] Each well was pipetted with a 1 mL pipette, collected in a 1.5 mL microtube, and centrifuged (500 g, 5 min, 4° C.). After removing the supernatant, it was washed with PBS and centrifuged again (500 g, 5 min, 4° C.). The supernatant was removed and the pellet was collected.
[Cell lysis and Sample preparation] lysis buffer was prepared as follows: RIPA buffer (Biosesang, RC2038-050-00), 0.5 mM PMSF (SIGMA, P7626) and 1× Protease/Phosphatase Inhibitor (Cell signaling, 5872S) were added at 60-70 μL per well and left on ice for 30 minutes. (Vortexing at 0 and 30 minutes, respectively), followed by sonication (10 seconds pulse, 30 seconds rest, 5 cycles, 70% amplification) and centrifuge (15000 g, 15 min, 4° C.). Only the supernatant was collected and transferred to a new microtube. The samples were diluted by ½ with RIPA buffer in a 96-well plate. 200 μL of the mixture A:B=50:1 of the BCA Protein Assay Kit (iNtRON, 21071) was added each, stayed at 37° C. for 30 minutes, and cooled for 10 minutes. Afterwards, absorbance was measured at 562 nm using BioTek's SYNERGY H1 microplate reader. After making a sample by quantifying the protein using the measured value, it was boiled at 70° C. for 10 minutes. The sample buffer used at this time was a mixture of NuPAGE or Bolt 4× sample buffer (Invitrogen) and each 10× sample reducing agent according to the gel to be used. RIPA buffer was used for protein dilution.
[Western blotting detection method] The same amount of sample was loaded on NuPAGE or Bolt Bis-tris 4-12% gradient gel and run (200 V, 35 minutes). It was transferred to a […] NC membrane using Trans-blot Turbo (BIO-RAD) (1.3 A constant, 25 V limit, 15 minutes). For blocking, skim milk or Intercept Blocking Buffer (LI-COR, 927-60001): 0.1% TBST=1:1 was used at room temperature for 1 hour. Anti BTK Rabbit (1:1,000 in 5% skim milk/0.2% TBST, size: 77 kDa, Cell signaling Technology) was reacted at 4° C. for 16 hours or at room temperature for 2 hours. Anti GAPDH Rabbit (1:10,000 in 5% BSA/0.2% TBST, size: 36 kDa, GENETEX) and Anti β-actin mouse (1:10,000 in 5% BSA/0.2% TBST, RT, size: 43 kDa, GENETEX) were reacted at room temperature for 1 hour or 3 hours. The samples were washed 3 times with 0.5% TBST for 5 minutes each. Secondary antibodies, Anti-Rabbit IgG (1:5,000 in 5% Skim milk/TBST, CST), IRDye® 800CW Goat anti-Rabbit IgG Secondary Antibody (1:10,000 in 5% skim/TBST, RT 45 min), IRDye® 680RD Goat anti-Mouse IgG Secondary Antibody (1:10,000 in 5% skim/TBST, RT 45 min) were added depending on each sample and reacted for 45 minutes on a rocker at room temperature. The samples were washed 5 times with 0.5% TBST for 5 minutes each and detected with LI-COR's Odyssey. At this time, BTK was detected using SuperSignal West Pico PLUS Chemiluminescent Substrate or SuperSignal West femto Maximum Sensitivity Substrate, and house-keeping genes were detected as is.

T1 sequence (Q06187 whole entry): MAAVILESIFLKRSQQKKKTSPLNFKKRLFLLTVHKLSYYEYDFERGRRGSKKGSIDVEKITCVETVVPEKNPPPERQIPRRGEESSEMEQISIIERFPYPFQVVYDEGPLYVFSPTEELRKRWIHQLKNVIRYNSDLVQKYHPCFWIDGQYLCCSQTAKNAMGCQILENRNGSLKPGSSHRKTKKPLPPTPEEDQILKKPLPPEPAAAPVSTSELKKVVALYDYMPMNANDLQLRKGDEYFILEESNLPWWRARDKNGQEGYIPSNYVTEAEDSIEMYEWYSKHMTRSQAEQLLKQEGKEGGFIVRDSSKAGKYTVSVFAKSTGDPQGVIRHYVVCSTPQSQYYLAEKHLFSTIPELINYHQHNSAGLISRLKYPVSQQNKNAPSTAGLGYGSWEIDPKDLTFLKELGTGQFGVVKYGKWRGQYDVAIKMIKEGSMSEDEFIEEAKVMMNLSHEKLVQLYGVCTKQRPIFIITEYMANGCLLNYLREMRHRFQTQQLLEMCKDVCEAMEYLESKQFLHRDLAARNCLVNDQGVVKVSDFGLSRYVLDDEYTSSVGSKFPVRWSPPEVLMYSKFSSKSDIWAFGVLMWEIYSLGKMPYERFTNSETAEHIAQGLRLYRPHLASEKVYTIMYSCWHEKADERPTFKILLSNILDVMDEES

Row | SMILES | BTK degradation (%) 1 nM [%] | BTK degradation (%) 10 nM [%] | BTK degradation (%) 100 nM [%]
1 | Cc1cc(-c2ccnc(Nc3ccc(CN4CCC(CN5CCC(c6ccc(NC7CCC(=O)NC7=O)cc6)CC5)CC4)cc3)n2)ccc1CNC(=O)c1cn(C(C)(C)C)nn1 (stereo not drawn) [Example 142, 1-(tert-butyl)-N-(4-(2-((4-((4-((4-(4-((2,6-dioxopiperidin-3-yl)amino)phenyl)piperidin-1-yl)methyl)piperidin-1-yl)methyl)phenyl)amino)pyrimidin-4-yl)-2-methylbenzyl)-1H-1,2,3-triazole-4-carboxamide] | 44.5 | 88.5 | 99.0
2 | Cc1cc(-c2ccnc(Nc3ccc(N4CCC(CN5CCC(c6ccc(NC7CCC(=O)NC7=O)cc6)CC5)CC4)nc3)n2)ccc1CNC(=O)c1cn(C(C)(C)C)nn1 (stereo not drawn) [Example 146, 1-(tert-butyl)-N-(4-(2-((6-(4-((4-(4-((2,6-dioxopiperidin-3-yl)amino)phenyl)piperidin-1-yl)methyl)piperidin-1-yl)pyridin-3-yl)amino)pyrimidin-4-yl)-2-methylbenzyl)-1H-1,2,3-triazole-4-carboxamide] | 26.5 | 88.0 | 99.0
3 | Cc1cc(-c2ccnc(Nc3ccc(N4CCN(CC5CCN(c6ccc(NC7CCC(=O)NC7=O)cc6)CC5)CC4)cc3)n2)ccc1CNC(=O)N1CC(OC(C)C)C1 (stereo not drawn) [Example 55, N-(4-(2-((4-(4-((1-(4-((2,6-dioxopiperidin-3-yl)amino)phenyl)piperidin-4-yl)methyl)piperazin-1-yl)phenyl)amino)pyrimidin-4-yl)-2-methylbenzyl)-3-isopropoxyazetidine-1-carboxamide] | 37.7 | 94.7 | 99.7
4 | Cc1cc(-c2ccnc(Nc3ccc(N4CCC(C(=O)N5CCC(c6ccc(NC7CCC(=O)NC7=O)cc6)CC5)CC4)cc3)n2)ccc1CNC(=O)N1CC(OC(C)C)C1 (stereo not drawn) [Example 117, N-(4-(2-((4-(4-(4-(4-((2,6-dioxopiperidin-3-yl)amino)phenyl)piperidine-1-carbonyl)piperidin-1-yl)phenyl)amino)pyrimidin-4-yl)-2-methylbenzyl)-3-isopropoxyazetidine-1-carboxamide] | 24.0 | 87.5 | 99.0
5 | Cc1cc(CNC(=O)N2CC(OC(C)C)C2)cc(-c2ccnc(Nc3ccc(N4CCN(CC5CCN(c6ccc7c(c6)C(=O)N(C6CCC(=O)NC6=O)C7=O)CC5)CC4)cc3)n2)c1 (stereo not drawn) [Example 28, N-(3-(2-((4-(4-((1-(2-(2,6-dioxopiperidin-3-yl)-1,3-dioxoisoindolin-5-yl)piperidin-4-yl)methyl)piperazin-1-yl)phenyl)amino)pyrimidin-4-yl)-5-methylbenzyl)-3-isopropoxyazetidine-1-carboxamide] | 18 | 12 | 4.5
6 | Cc1cc(-c2ccnc(Nc3ccc(N4CCC(CN5CCN(c6ccc(NC7CCC(=O)NC7=O)cn6)CC5)CC4)cc3)n2)ccc1CNC(=O)c1cnn(C(C)(C)C)c1 (stereo not drawn) [Example 131, 1-(tert-butyl)-N-(4-(2-((4-(4-((4-(5-((2,6-dioxopiperidin-3-yl)amino)pyridin-2-yl)piperazin-1-yl)methyl)piperidin-1-yl)phenyl)amino)pyrimidin-4-yl)-2-methylbenzyl)-1H-pyrazole-4-carboxamide] | 59.5 | 96.0 | 100.0

More lines, now with the values ahead:

Row | BTK degradation (%) 1 nM [%] | BTK degradation (%) 10 nM [%] | BTK degradation (%) 100 nM [%] | SMILES
7 | 71.0 | 95.5 | 98.5 | Cc1cc(-c2ccnc(Nc3ccc(N4CCC(CN5CCC(c6ccc(NC7CCC(=O)NC7=O)cc6)CC5)CC4)cc3)n2)ccc1CNC(=O)c1cn(C(C)(C)C)nn1 (stereo not drawn) [Example 136, 1-(tert-butyl)-N-(4-(2-((4-(4-((4-(4-((2,6-dioxopiperidin-3-yl)amino)phenyl)piperidin-1-yl)methyl)piperidin-1-yl)phenyl)amino)pyrimidin-4-yl)-2-methylbenzyl)-1H-1,2,3-triazole-4-carboxamide]
8 | 59.0 | 94.5 | 99.0 | Cc1cc(-c2ccnc(Nc3ccc(N4CCC(CN5CCC(c6ccc(NC7CCC(=O)NC7=O)cc6)CC5)CC4)cc3)n2)ccc1CNC(=O)c1cnn(C(C)(C)C)c1 (stereo not drawn) [Example 135, 1-(tert-butyl)-N-(4-(2-((4-(4-((4-(4-((2,6-dioxopiperidin-3-yl)amino)phenyl)piperidin-1-yl)methyl)piperidin-1-yl)phenyl)amino)pyrimidin-4-yl)-2-methylbenzyl)-1H-pyrazole-4-carboxamide]
9 | 75 | 97 | 99 | Cc1cc(-c2ccnc(Nc3cnn(C4CCN(CC5CN(c6ccc7c(c6)C(=O)N(C6CCC(=O)NC6=O)C7=O)C5)CC4)c3)n2)ccc1CNC(=O)N1CC(OC(C)C)C1 (stereo not drawn) [Example 22, N-(4-(2-((1-(1-((1-(2-(2,6-dioxopiperidin-3-yl)-1,3-dioxoisoindolin-5-yl)azetidin-3-yl)methyl)piperidin-4-yl)-1H-pyrazol-4-yl)amino)pyrimidin-4-yl)-2-methylbenzyl)-3-isopropoxyazetidine-1-carboxamide]
10 | 73.5 | 98.0 | 99.5 | Cc1cc(-c2ccnc(Nc3ccc(N4CCN(CC5CCN(c6cccc(N7CCC(=O)NC7=O)c6)CC5)CC4)cc3)n2)ccc1CNC(=O)c1cnn(C(C)C)c1 [Example 80, N-(4-(2-((4-(4-((1-(3-(2,4-dioxotetrahydropyrimidin-1 (2H)-yl)phenyl)piperidin-4-yl)methyl)piperazin-1-yl)phenyl)amino)pyrimidin-4-yl)-2-methylbenzyl)-1-isopropyl-1H-pyrazole-4-carboxamide]
11 | 46.5 | 92.0 | 98.5 | Cc1cc(-c2ccnc(Nc3ccc(C4CCN(CC5CCN(C(=O)c6cccc(NC7CCC(=O)NC7=O)c6)CC5)CC4)cc3)n2)ccc1CNC(=O)N1CC(OC(C)C)C1 (stereo not drawn) [Example 99, N-(4-(2-((4-(1-((1-(3-((2,6-dioxopiperidin-3-yl)amino)benzoyl)piperidin-4-yl)methyl)piperidin-4-yl)phenyl)amino)pyrimidin-4-yl)-2-methylbenzyl)-3-isopropoxyazetidine-1-carboxamide]
12 | 80.5 | 98.0 | 99.5 | Cc1cc(-c2ccnc(Nc3ccc(N4CCN(CC5CCN(c6ccc(N7CCC(=O)NC7=O)cc6)CC5)CC4)cc3)n2)ccc1CNC(=O)c1cn(C(C)(C)C)nn1 [Example 71, 1-(tert-butyl)-N-(4-(2-((4-(4-((1-(4-(2,4-dioxotetrahydropyrimidin-1 (2H)-yl)phenyl)piperidin-4-yl)methyl)piperazin-1-yl)phenyl)amino)pyrimidin-4-yl)-2-methylbenzyl)-1H-1,2,3-triazole-4-carboxamide]
